Measurements published in the supplement of paper PMC10307832.

How the values were obtained:
Test in all cases: relative viability (nuclei count vs DMSO), 5 days (fraction); higher = more cells survive
[1] = compound: C/C(=N\NC(=S)N1CCC1)/C2=CC=CC=N2 + NC(=O)Nc1cc(-c2cccc(F)c2)sc1C(=O)N[C@H]1CCCNC1 [AZD7762] (partner 0.2 µM)
How it was run: (§1)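 The day after seeding in 1536-well plates, lung cancer cell lines were treated by pin tool with a single drug, or with a fixed anchor-drug dose together with five library-drug doses (not always all listed) in √10 steps. After 5 days, a combined fix-and-stain solution (final 0.05% Triton X-100, 1% formaldehyde, 1 ug/ml Hoechst) was added. Nuclei counted on 4× images gave relative viability as treated counts over vehicle counts, reported as the median of duplicate plates.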

[2] = compound: C/C(=N\NC(=S)N1CCC1)/C2=CC=CC=N2 + O=C(CCCCCCC(=O)Nc1ccccc1)NO [Vorinostat] (partner 1 µM)
How it was run: as §1

[3] = compound: C/C(=N\NC(=S)N1CCC1)/C2=CC=CC=N2 + CC(=O)c1c(C)c2cnc(Nc3ccc(N4CCNCC4)cn3)nc2n(C2CCCC2)c1=O [Palbociclib] (partner 0.5 µM)
How it was run: as §1

[4] = compound: C/C(=N\NC(=S)N1CCC1)/C2=CC=CC=N2 + C[C@@H](Oc1cc(-c2cnn(C3CCNCC3)c2)cnc1N)c1c(Cl)ccc(F)c1Cl [Crizotinib] (partner 1 µM)
How it was run: as §1

Row | Cell Line | relative viability ([1]; first compound 0.05 µM) | relative viability ([1]; first compound 0.1581 µM) | relative viability ([1]; first compound 0.5 µM) | relative viability ([1]; first compound 1.581 µM) | relative viability ([1]; first compound 5 µM) | relative viability ([2]; first compound 0.05 µM) | relative viability ([2]; first compound 0.1581 µM) | relative viability ([2]; first compound 0.5 µM) | relative viability ([2]; first compound 1.581 µM) | relative viability ([2]; first compound 5 µM) | relative viability ([3]; first compound 0.05 µM) | relative viability ([3]; first compound 0.1581 µM) | relative viability ([3]; first compound 0.5 µM) | relative viability ([3]; first compound 1.581 µM) | relative viability ([3]; first compound 5 µM) | relative viability ([4]; first compound 0.05 µM) | relative viability ([4]; first compound 0.1581 µM) | relative viability ([4]; first compound 0.5 µM) | relative viability ([4]; first compound 1.581 µM) | relative viability ([4]; first compound 5 µM)
1 | NCI-H1993 | 0.302 | 0.372 | 0.387 | 0.373 | 0.317 | 0.337 | 0.539 | 0.319 | 0.338 | 0.446 | 0.345 | 0.36 | 0.349 | 0.405 | 0.377 | 0.588 | 0.536 | 0.571 | 0.509 | 0.443
2 | NCI-H2085 | 0.263 | 0.278 | 0.293 | 0.223 | 0.271 | 0.339 | 0.379 | 0.355 | 0.288 | 0.305 | 0.275 | 0.303 | 0.261 | 0.279 | 0.273 | 0.269 | 0.236 | 0.25 | 0.219 | 0.225
3 | NCI-H2087 | 0.193 | 0.16 | 0.249 | 0.118 | 0.15 | 0.145 | 0.0717 | 0.14 | 0.0948 | 0.098 | 0.104 | 0.0945 | 0.12 | 0.118 | 0.0998 | 0.323 | 0.274 | 0.284 | 0.187 | 0.171
4 | NCI-H2126 | 0.2 | 0.19 | 0.214 | 0.189 | 0.157 | 0.184 | 0.211 | 0.197 | 0.186 | 0.168 | 0.249 | 0.34 | 0.212 | 0.207 | 0.209 | 0.671 | 1.01 | 0.226 | 0.187 | 0.146
5 | NCI-H2170 | 0.298 | 0.178 | 0.153 | 0.126 | 0.1 | 0.267 | 0.195 | 0.161 | 0.155 | 0.0916 | 0.37 | 0.378 | 0.17 | 0.131 | 0.121 | 1.12 | 1.09 | 0.269 | 0.183 | 0.162
6 | NCI-H2347 | 0.192 | 0.235 | 0.218 | 0.198 | 0.244 | 0.315 | 0.305 | 0.227 | 0.276 | 0.243 | 0.323 | 0.305 | 0.282 | 0.277 | 0.29 | 0.557 | 0.438 | 0.322 | 0.233 | 0.302
7 | NCI-H2405 | 0.215 | 0.245 | 0.253 | 0.186 | 0.23 | 0.241 | 0.267 | 0.252 | 0.217 | 0.222 | 0.217 | 0.25 | 0.26 | 0.214 | 0.21 | 0.26 | 0.29 | 0.307 | 0.25 | 0.258
8 | NCI-H3122 | 0.0944 | 0.0773 | 0.115 | 0.13 | 0.114 | 0.111 | 0.077 | 0.106 | 0.121 | 0.103 | 0.0974 | 0.166 | 0.103 | 0.148 | 0.127 | 0.151 | 0.171 | 0.185 | 0.171 | 0.176
9 | PC-3 [JPC-3] | 0.317 | 0.384 | 0.307 | 0.243 | 0.234 | 0.338 | 0.436 | 0.357 | 0.269 | 0.196 | 0.328 | 0.485 | 0.409 | 0.362 | 0.373 | 0.594 | 0.984 | 0.361 | 0.301 | 0.252
10 | PC-14 | 0.08 | 0.12 | 0.106 | 0.0559 | 0.0985 | 0.0311 | 0.0568 | 0.041 | 0.041 | 0.0331 | 0.0312 | 0.0553 | 0.052 | 0.0451 | 0.0402 | 0.215 | 0.11 | 0.0946 | 0.0983 | 0.0928
11 | RERF-LC-KJ | 0.176 | 0.238 | 0.18 | 0.16 | 0.208 | 0.214 | 0.207 | 0.19 | 0.21 | 0.208 | 0.211 | 0.19 | 0.194 | 0.198 | 0.212 | 0.224 | 0.263 | 0.253 | 0.239 | 0.242
